Each block holds one compound with its values, some of them ahead of it.
Assays:
[1] = biological target: human Nav1.8 sodium channel (Homo sapiens, UniProt Q9Y5Y9); assay: Blocking activity on sodium channel 1.8 (Nav1.8), whole-cell manual patch clamp; assay type: cell-based; conditions: for inhibition at 0.001 µM: read-out: inhibition Percent @1 nM, 1 nM compound; for inhibition Percent @1 nM: 1 nM compound, 0.001 µM; for inhibition at 0.03 µM: read-out: inhibition Percent @30 nM, 30 nM compound; for inhibition at 0.01 µM: read-out: inhibition Percent @10 nM, 10 nM compound
Chain of human Nav1.8 sodium channel (Q9Y5Y9 whole entry): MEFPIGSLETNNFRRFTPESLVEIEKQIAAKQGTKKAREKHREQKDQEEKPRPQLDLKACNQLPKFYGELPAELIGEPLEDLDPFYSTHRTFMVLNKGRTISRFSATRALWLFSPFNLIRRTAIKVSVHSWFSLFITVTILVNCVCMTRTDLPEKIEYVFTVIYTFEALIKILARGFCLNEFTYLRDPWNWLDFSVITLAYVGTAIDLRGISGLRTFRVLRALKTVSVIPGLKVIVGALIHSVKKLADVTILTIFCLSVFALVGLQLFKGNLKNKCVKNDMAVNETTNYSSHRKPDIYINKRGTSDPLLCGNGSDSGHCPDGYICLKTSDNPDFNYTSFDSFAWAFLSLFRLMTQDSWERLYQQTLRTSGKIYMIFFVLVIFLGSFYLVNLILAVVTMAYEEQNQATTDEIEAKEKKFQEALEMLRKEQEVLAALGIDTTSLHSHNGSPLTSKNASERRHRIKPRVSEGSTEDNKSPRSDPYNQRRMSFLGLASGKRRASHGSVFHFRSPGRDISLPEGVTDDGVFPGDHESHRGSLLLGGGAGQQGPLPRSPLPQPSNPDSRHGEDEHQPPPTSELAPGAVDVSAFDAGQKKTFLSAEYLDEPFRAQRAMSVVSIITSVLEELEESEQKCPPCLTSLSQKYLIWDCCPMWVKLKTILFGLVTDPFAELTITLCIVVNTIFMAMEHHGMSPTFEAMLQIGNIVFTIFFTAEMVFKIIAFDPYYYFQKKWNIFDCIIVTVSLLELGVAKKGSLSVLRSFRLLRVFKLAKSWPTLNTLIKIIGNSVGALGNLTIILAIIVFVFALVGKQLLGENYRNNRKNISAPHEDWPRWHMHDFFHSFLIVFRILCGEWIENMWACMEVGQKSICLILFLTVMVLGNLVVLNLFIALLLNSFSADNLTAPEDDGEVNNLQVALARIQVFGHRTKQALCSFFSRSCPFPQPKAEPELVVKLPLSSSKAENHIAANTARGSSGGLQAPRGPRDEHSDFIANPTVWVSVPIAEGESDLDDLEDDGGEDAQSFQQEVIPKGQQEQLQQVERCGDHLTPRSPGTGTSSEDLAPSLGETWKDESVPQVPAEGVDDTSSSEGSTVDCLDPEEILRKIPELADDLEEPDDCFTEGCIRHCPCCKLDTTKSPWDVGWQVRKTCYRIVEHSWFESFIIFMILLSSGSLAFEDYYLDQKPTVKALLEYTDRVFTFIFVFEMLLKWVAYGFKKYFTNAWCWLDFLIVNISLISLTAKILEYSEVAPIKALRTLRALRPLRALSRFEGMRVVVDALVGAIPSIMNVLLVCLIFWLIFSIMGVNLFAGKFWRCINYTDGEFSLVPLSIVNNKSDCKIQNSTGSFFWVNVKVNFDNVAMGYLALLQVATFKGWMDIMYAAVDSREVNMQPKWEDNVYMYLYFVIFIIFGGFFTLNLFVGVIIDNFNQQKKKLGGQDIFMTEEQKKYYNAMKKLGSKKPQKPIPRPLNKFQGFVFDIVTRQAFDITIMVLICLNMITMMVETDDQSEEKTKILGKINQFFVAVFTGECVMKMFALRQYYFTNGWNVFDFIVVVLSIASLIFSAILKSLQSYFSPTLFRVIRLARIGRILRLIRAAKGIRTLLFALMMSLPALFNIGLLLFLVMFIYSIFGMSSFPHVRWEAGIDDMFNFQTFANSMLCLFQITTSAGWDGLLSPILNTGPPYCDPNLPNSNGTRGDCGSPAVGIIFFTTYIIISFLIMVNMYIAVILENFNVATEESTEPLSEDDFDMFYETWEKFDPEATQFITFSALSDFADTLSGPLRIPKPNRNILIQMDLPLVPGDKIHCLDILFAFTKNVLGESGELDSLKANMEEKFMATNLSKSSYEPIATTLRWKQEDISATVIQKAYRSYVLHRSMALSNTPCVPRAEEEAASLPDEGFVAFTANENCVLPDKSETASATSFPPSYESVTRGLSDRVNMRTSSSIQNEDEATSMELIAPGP

[2] = In vivo pharmacokinetics in rats, single intravenous injection or oral gavage; conditions: male, SD, plasma, Rat; for Vd: read-out: Vss
Method: The in vivo pharmacokinetics in rats were evaluated via a single intravenous injection or oral gavage administration in this test example. • 1. Test Methods and Conditions: Male SD rats were fasted overnight and administered a single intravenous dose of 2 mg/kg or 1 mg/kg of the test compound (solvent for Intravenous administration was 5% DMSO/10% Solutol® HS 15/10% EtOH/75% saline, with a dosing volume of 5 mL/kg) and an oral gavage dose of 10 mg/kg or 5 mg/kg of the test compound (solvent for administration was 0.5% CMC-Na, with a dosing volume of 10 mL/kg), respectively. • 2. Sampling Information: Blood samples (0.2 mL) were collected from the retroorbital venous plexus at the designated time points: 0.25, 0.5, 1.0, 2.0, 3.0, 4.0, 6.0, 8.0, and 24 hours before and after dosing (a 5 min sampling point was added for the intravenous administration group), respectively. The samples were placed in EDTA-K2 tubes and centrifuged at 11,000 rpm for 5 minutes. Plasma was separated and frozen at -20°C. • 3. Assay Information: LC/MS/MS was used to determine the concentration of the parent drug in rat/mouse plasma following intravenous and oral gavage administration of the test compound. Pharmacokinetic parameters in rat/mouse plasma were calculated for both administration routes, and the bioavailability of each compound in rats was also calculated. Table 5: Intravenous Pharmacokinetic Information of Representative Compounds

[3] = intravenous, single dose 2 mg/kg or 1 mg/kg (figure not given)

Structure (SMILES): CC1CN(c2nc(C(F)(F)F)c(Cl)cc2C(=O)Nc2ccc(F)c(C(N)=NO)c2)CCC1(F)F (single isomer, unassigned) [Compound I-40-P1, 5-chloro-2-(4,4-difluoro-3-methylpiperidin-1-yl)-N-(4-fluoro-3-(N'-hydroxyamidino)phenyl)-6-(trifluoromethyl)nicotinamide]
inhibition at 0.001 µM [1]: 59%

Structure (SMILES): CC1CN(c2nc(C(F)(F)F)c(Cl)cc2C(=O)Nc2ccc(F)c(C(N)=NO)c2)CCC1(F)F (single isomer, unassigned) [Compound I-40-P2, 5-chloro-2-(4,4-difluoro-3-methylpiperidin-1-yl)-N-(4-fluoro-3-(N'-hydroxyamidino)phenyl)-6-(trifluoromethyl)nicotinamide]
inhibition Percent @1 nM [1]: 63%

Structure (SMILES): Cc1nc(N2CCC(F)(F)C(C)C2)c(C(=O)Nc2ccc(F)c(C(N)=NO)c2)cc1Cl (single isomer, unassigned) [Compound I-41-P1, 5-chloro-2-(4,4-difluoro-3-methylpiperidin-1-yl)-N-(4-fluoro-3-(N'-hydroxyamidino)phenyl)-6-(methyl)nicotinamide]
inhibition at 0.001 µM [1]: 38%

Structure (SMILES): Cc1nc(N2CCC(F)(F)C(C)C2)c(C(=O)Nc2ccc(F)c(C(N)=NO)c2)cc1Cl (single isomer, unassigned) [Compound I-41-P2, 5-chloro-2-(4,4-difluoro-3-methylpiperidin-1-yl)-N-(4-fluoro-3-(N'-hydroxyamidino)phenyl)-6-(methyl)nicotinamide]
inhibition Percent @1 nM [1]: 35%

Structure (SMILES): Cc1nc(N2CCCC(F)(F)CC2)c(C(=O)Nc2ccc(F)c(C(=O)O)c2)cc1Cl [Compound I7-b, 5-(5-chloro-2-(4,4-difluoroazepan-1-yl)-6-methylnicotinamido)-2-fluorobenzoic acid]
inhibition at 0.03 µM [1]: 33%

Structure (SMILES): Cc1nc(N2CCCC(F)(F)CC2)c(C(=O)Nc2ccc(F)c(C(=N)N)c2)cc1Cl [Compound I-2, N-(3-amidino-4-fluorophenyl)-5-chloro-2-(4,4-difluoroazepan-1-yl)-6-methylnicotinamide]
inhibition at 0.001 µM [1]: 79%

AUC(0-t) [2, 3]: 567 ng·h/mL
clearance [2, 3]: 29.7 mL/min/kg
half-life [2, 3]: 0.325 h
Vd [2, 3]: 0.442 L/kg
AUC(0-t) ([2]; oral gavage, 5mg/kg): 1770 ng·h/mL
Cmax ([2]; oral gavage, 5mg/kg): 381 ng/mL
Tmax ([2]; oral gavage, 5mg/kg): 6 h
half-life ([2]; oral gavage, 5mg/kg): 2.08 h
bioavailability ([2]; oral gavage, 5mg/kg): 62.4%
Structure (SMILES): Cc1nc(N2CCCC(F)(F)CC2)c(C(=O)Nc2ccc(F)c(C(N)=NC#N)c2)cc1Cl [Compound I-3, 5-chloro-N-(3-(N'-cyanoamidino)-4-fluorophenyl)-2-(4,4-difluoroazepan-1-yl)-6-meth ylnicotinamide]

Structure (SMILES): Cc1nc(N2CCCC(F)(F)CC2)c(C(=O)Nc2ccc(Cl)c(C(N)=NO)c2)cc1Cl [Compound I-5, 5-chloro-2-(4,4-difluoroazepan-1-yl)-N-(4-chloro-3-(N'-hydroxyamidino)phenyl)-6-me thylnicotinamide]
inhibition at 0.001 µM [1]: 82%

Structure (SMILES): Cc1nc(N2CCCC(F)(F)CC2)c(C(=O)Nc2ccc(Cl)c(C(=N)N)c2)cc1Cl [Compound I-6, N-(3-amidino-4-chlorophenyl)-5-chloro-2-(4,4-difluoroazepan-1-yl)-6-methylnicotinamide]
inhibition at 0.001 µM [1]: 65%

Structure (SMILES): Cc1ccc(NC(=O)c2cc(Cl)c(C)nc2N2CCCC(F)(F)CC2)cc1C(N)=NO [Compound I-7, 5-chloro-2-(4,4-difluoroazepan-1-yl)-N-(3-(N'-hydroxyamidino)-4-methylphenyl)-6-me thylnicotinamide]
inhibition at 0.01 µM [1]: 83%

Structure (SMILES): Cc1ccc(NC(=O)c2cc(Cl)c(C)nc2N2CCCC(F)(F)CC2)cc1C(=N)N [Compound I-8, N-(3-amidino-4-methylphenyl)-5-chloro-2-(4,4-difluoroazepan-1-yl)-6-methylnicotinamide]
inhibition at 0.001 µM [1]: 51%

Structure (SMILES): COc1ccc(NC(=O)c2cc(Cl)c(C)nc2N2CCCC(F)(F)CC2)cc1C(=N)N [Compound I-10, N-(3-amidino-4-methoxyphenyl)-5-chloro-2-(4,4-difluoroazepan-1-yl)-6-methylnicoti namide]
inhibition at 0.001 µM [1]: 32%

Structure (SMILES): Cc1nc(N2CCCC(F)(F)CC2)c(C(=O)Nc2cccc(C(N)=NO)c2)cc1Cl [Compound I-11, 5-chloro-2-(4,4-difluoroazepan-1-yl)-N-(3-(N'-hydroxyamidino)phenyl)-6-methylnicoti namide]
inhibition at 0.001 µM [1]: 90%

Structure (SMILES): Cc1nc(N2CCCC(F)(F)CC2)c(C(=O)Nc2cccc(C(=N)N)c2)cc1Cl [Compound I-12, N-(3-amidinophenyl)-5-chloro-2-(4,4-difluoroazepan-1-yl)-6-methylnicotinamide]
IC50 ([1]; Nav1.8 channel current, HEK293 cells stably expressing human Nav1.8, clamped at -60 mV, mean ± SEM, read-out: IC50): 0.26 ± 0.06 nM
inhibition at 0.001 µM [1]: 73%

Structure (SMILES): Cc1nc(N2CCCC(F)(F)CC2)c(C(=O)Nc2ccc(C(N)=NO)cc2)cc1Cl [Compound I-13, 5-chloro-2-(4,4-difluoroazepan-1-yl)-N-(4-(N'-hydroxyamidino)phenyl)-6-methylnicoti namide]
inhibition at 0.001 µM [1]: 85%

Structure (SMILES): Cc1nc(N2CCCC(F)(F)CC2)c(C(=O)Nc2ccnc(C(N)=NO)c2)cc1Cl [Compound I-15, 5-chloro-2-(4,4-difluoroazepan-1-yl)-N-(2-(N'-hydroxyamidinoimino)pyridin-4-yl)-6-m ethylnicotinamide]
inhibition at 0.001 µM [1]: 66%

Structure (SMILES): Cc1nc(N2CCCC(F)(F)CC2)c(C(=O)Nc2ccc(F)c(C(=O)NC(=N)N)c2)cc1Cl [Compound I-17, N-(3-(amidinocarbamoyl)-4-fluorophenyl)-5-chloro-2-(4,4-difluoroazepan-1-yl)-6-met hylnicotinamide]
inhibition at 0.03 µM [1]: 99%

Structure (SMILES): Cc1nc(N2CCCC(F)(F)CC2)c(C(=O)Nc2cccc(C(=O)NC(=N)N)c2)cc1Cl [Compound I-18, N-(3-(amidinocarbamoyl)phenyl)-5-chloro-2-(4,4-difluoroazepan-1-yl)-6-methylnicoti namide]
inhibition at 0.03 µM [1]: 90%

Structure (SMILES): Cc1nc(N2CCCC(F)(F)CC2)c(C(=O)Nc2ccc(F)c(NC(=N)N)c2)cc1Cl [Compound I-19, 5-chloro-2-(4,4-difluoroazepan-1-yl)-N-(4-fluoro-3-guanidinophenyl)-6-methylnicotin amide]
inhibition at 0.001 µM [1]: 49%

Structure (SMILES): Cc1nc(N2CCCCCC2)c(C(=O)Nc2cccc(C(=N)N)c2)cc1Cl [Compound I-23, 2-(azepan-1-yl)-N-(3-amidinophenyl)-5-chloro-6-methylnicotinamide]
inhibition at 0.03 µM [1]: 95%

Structure (SMILES): C#Cc1cc(C(=O)Nc2ccc(F)c(C(N)=NO)c2)c(N2CCCC(F)(F)CC2)nc1C [Compound I-26, 2-(4,4-difluoroazepan-1-yl)-5-ethynyl-N-(4-fluoro-3-(N'-hydroxyamidino)phenyl)-6-m ethylnicotinamide]
inhibition at 0.01 µM [1]: 76%

Structure (SMILES): Cc1nc(N2CCCC(F)(F)CC2)c(C(=O)Nc2ccc(F)c(C(N)=NO)c2)cc1C(F)(F)F [Compound I-27, 2-(4,4-difluoroazepan-1-yl)-N-(4-fluoro-3-(N'-hydroxyamidino)phenyl)-6-methyl-5-(trifluoromethyl)nicotinamide]
inhibition at 0.01 µM [1]: 83%

Structure (SMILES): Cc1ccc(C(=O)Nc2ccc(F)c(C(N)=NO)c2)c(N2CCCC(F)(F)CC2)n1 [Compound I-29, 2-(4,4-difluoroazepan-1-yl)-N-(4-fluoro-3-(N'-hydroxyamidino)phenyl)-6-methylnicoti namide]
inhibition at 0.01 µM [1]: 57%

Structure (SMILES): O=C(Nc1ccc2c(c1)S(=O)(=O)NC2)c1c(N2CCCC(F)(F)CC2)ccc(C(F)(F)F)c1Cl [Compound I-31, 2-chloro-6-(4,4-difluoroazepan-1-yl)-N-(1,1-dioxo-2,3-dihydrobenzisothiazol-6-yl)-3-tr ifluoromethylbenzamide]
inhibition at 0.001 µM [1]: 46%

Structure (SMILES): NC(=NO)c1cc(NC(=O)c2c(N3CCCC(F)(F)CC3)ccc(C(F)(F)F)c2Cl)ccc1F [Compound I-32, 2-chloro-6-(4,4-difluoroazepan-1-yl)-N-(4-fluoro-3-(N'-hydroxyamidino)phenyl)-3-(trifluoromethyl)benzamide]
inhibition at 0.001 µM [1]: 50%

Structure (SMILES): N#CN=C(N)c1cc(NC(=O)c2cc(Cl)c(C(F)(F)F)nc2N2CCCC(F)(F)CC2)ccc1F [Compound I-37, 5-chloro-N-(3-(N'-cyanoamidino)-4-fluorophenyl)-2-(4,4-difluoroazepan-1-yl)-6-triflu oromethylnicotinamide]
inhibition at 0.01 µM [1]: 62%

Structure (SMILES): NC(=NO)c1cc(NC(=O)c2cc(Cl)c(C(F)F)nc2N2CCCC(F)(F)CC2)ccc1F [Compound I-38, 5-chloro-2-(4,4-difluoroazepan-1-yl)-6-(difluoromethyl)-N-(4-fluoro-3-(N'-hydroxyamidino)phenyl)nicotinamide]
inhibition at 0.001 µM [1]: 33%

AUC(0-t) [2, 3]: 2510 ng·h/mL
clearance [2, 3]: 13.9 mL/min/kg
half-life [2, 3]: 1.08 h
Vd [2, 3]: 1.09 L/kg
AUC(0-t) ([2]; oral gavage, 10mg/kg): 3810 ng·h/mL
Cmax ([2]; oral gavage, 10mg/kg): 723 ng/mL
Tmax ([2]; oral gavage, 10mg/kg): 2 h
half-life ([2]; oral gavage, 10mg/kg): 2.88 h
bioavailability ([2]; oral gavage, 10mg/kg): 30.4%
Structure (SMILES): Cc1cc(F)ccc1Oc1cc(C(F)(F)F)ccc1C(=O)Nc1cc[nH]c(=O)c1 [VX-150, reference compound]
